Results taken from patent US7417048B2, “Aryl-substituted derivatives of cycloalkyl and branched chain alkyl carboxylic acids useful as antinociceptive drugs for peripheral targets” (priority 2003, dated 2008).

System: not listed separately
Assay: Threshold cooling effect of p-menthane carboxylic acid esters
Format: in vivo, human
Conditions: p-menthane-COOR esters
Text: Neurophysiological and Molecular Mechanisms of Drug Action. The procedures described previously are used in drug screening. Experimentally there are additional methods to identify peripheral antinociceptive pharmacophore-compounds on sensory nerve endings. TRP receptors are present in sensory neurons. At the molecular level, the interactions of these peripheral antinociceptive pharmacophore-compounds with various TRP receptors can be characterized. The methods for such receptor studies were described by Laus et al. (Prostate tumor nucleotide compositions and methods of detection thereof. U.S. Pat. No. 6,194,152 B1, Feb. 27, 2001), and by Bevan et al. (Vanilloid receptor-related nucleic acids and polypeptides. U.S. 2003/0157633 A1, Aug. 21, 2003) and Julius et al. (Methods of modulating cold sensory perception. U.S. 2003/0219834 A1, Nov. 27, 2003), herein incorporated by reference. In the patent by Laus et al. it is noted that activation of trp-p8 by specific agonists of this receptor may also be utilized for the treatment of prostate disorders such prostate neoplasia. The use of peripheral antinociceptive pharmacophore-compounds of this discovery for prostate disorders is also contemplated in the present patent application. Identification of Pharmacophore. […] Based on this information, the pharmacophore precursor was selected and then the -ZR″ moiety was placed on the molecule to form the peripheral antinociceptive pharmacophore compounds of this discovery with desired pharmacokinetics and adequate delivery of pharmacophore to the target.

Row | Molecule | Threshold Cooling Effect [µg]
1 | CC1(C)OCC(CO)O1 (stereo not drawn) | 11
2 | CC(=O)OCCOC(=O)C1CC(C)CCC1C(C)C (stereo not drawn) [2-acetoxoyethanol] | 33
3 | CC(C)(O)C(=O)O [2-hydroxy-2-methylpropanoic acid] | 20
4 | Cc1cc(O)cc(O)c1 [3,5-dihydroxytoluene] | 15
5 | OCCCCO [butan-1,4-diol] | 12
6 | CC(O)C(C)O (stereo not drawn) [butan-2,3-diol] | 3
7 | OCC#CCO [butyn-1,4-diol] | 6
8 | OC1CCCCC1O (stereo not drawn) [cyclohexan-1,2-diol] | 4
9 | OCCOCCO [diethylene glycol] | 1
10 | CCOC(=O)C(C)O (stereo not drawn) [ethyl lactate] | 50
11 | OCCO [ethylene glycol] | 1.5
12 | OCC(O)CO [glycerol] | 1.2
13 | CC1CCC(C(C)C)C(C(=O)OCC(=O)O)C1 (stereo not drawn) [glycollic acid] | 15
14 | CC(O)C(=O)O (stereo not drawn) [lactic acid] | 8
15 | OCCCO [propan-1,3-diol] | 7
16 | CC(O)CO (stereo not drawn) [propylene glycol] | 1.4
17 | OC[C@@H](O)[C@@H](O)[C@H](O)[C@@H](O)CO [sorbitol] | 50
18 | OCCOCCOCCO [triethylene glycol] | 5
19 | hexylene glycol | 8

System: tongue of the test subject
Assay: Cold sensation threshold on tongue, impregnated filter paper
Format: in vivo, human
Conditions: filter paper 1 × 1 cm on tongue, 30 sec, presence or absence of cooling effect

Row | Molecule | Cold Sensation Threshold on Tongue [µg]
20 | CC1CCC(C(C)C)C(C(=O)Nc2cccc3ccccc23)C1 (stereo not drawn) [N-(1′-naphthyl)-2-isopropyl-5-methylcyclohexanecarboxamide] | 6
21 | COc1ccc(NC(=O)C2C3C=CC(C3)C2CC(C)C)c(OC)c1 (stereo not drawn) [N-(2′,4′-dimethoxyphenyl)-3-isobutylbicyclo[2.2.1]hept-5-ene-2-carboxamide] | 1
22 | Cc1ccc(NC(=O)C2(C(C)C)CCCCCC2)c(C)c1 [N-(2′,4′-dimethylphenyl)-1-isopropylcycloheptanecarboxamide] | 15
23 | Cc1ccc(NC(=O)C(C)(C(C)C)C(C)C)c(C)c1 [N-(2′,4′-dimethylphenyl)-2-isopropyl-2,3-dimethylbutyramide] | 1
24 | Cc1ccc(NC(=O)C2CC(C)CCC2C(C)C)c(C)c1 (stereo not drawn) [N-(2′,4′-dimethylphenyl)-2-isopropyl-5-methylcyclohexanecarboxamide] | 0.1
25 | Cc1ccc(C)c(NC(=O)C(C)(CC(C)C)C(C)C)c1 (stereo not drawn) [N-(2′,5′-dimethylphenyl)-2-isopropyl-2,4-dimethylpentanamide] | 5
26 | Cc1ccc(C)c(NC(=O)C2C3CCC(C3)C2(C)C)c1 (stereo not drawn) [N-(2′,5′-dimethylphenyl)-3,3-dimethylbicyclo[2.2.1]heptane-2-carboxamide] | 20
27 | CC1CCC(C(C)C)C(C(=O)Nc2ccccc2O)C1 (stereo not drawn) [N-(2′-hydroxyphenyl)-2-isopropyl-5-methylcyclohexanecarboxamide] | 0.5
28 | COc1ccc(NC(=O)C2C3C=CC(C3)C2CC(C)C)c(C)c1 (stereo not drawn) [N-(2′-methyl-4′-methoxyphenyl)-3-isobutylbicyclo[2.2.1]hept-5-ene-2-carboxamide] | 1
29 | CCCCC1C2C=CC(C2)C1C(=O)Nc1ccc(OC)cc1C (stereo not drawn) [N-(2′-methyl-4′-methoxyphenyl)-3-n-butylbicyclo[2.2.1]hept-5-ene-2-carboxamide] | 1
30 | COc1ccc(NC(=O)C2(C(C)C)CCCCCC2)cc1OC [N-(3′,4′-dimethoxyphenyl)-1-isopropylcycloheptanecarboxamide] | 5
31 | Cc1ccc(NC(=O)C2(C(C)C)CCCCCC2)cc1C [N-(3′,4′-dimethylphenyl)-1-isopropylcycloheptanecarboxamide] | 15
32 | Cc1ccc(NC(=O)C(C)(C(C)C)C(C)C)cc1C [N-(3′,4′-dimethylphenyl)-2-isopropyl-2,3-dimethylbutyramide] | 3
33 | COc1ccc(NC(=O)C2C3C=CC(C3)C2CC(C)C)cc1O (stereo not drawn) [N-(3′-hydroxy-4′-methoxyphenyl)-3-isobutylbicyclo[2.2.1]hept-5-ene-2-carboxamide] | 8
34 | CCCCC1C2C=CC(C2)C1C(=O)Nc1ccc(OC)c(O)c1 (stereo not drawn) [N-(3′-hydroxy-4′-methoxyphenyl)-3-n-butylbicyclo[2.2.1]hept-5-ene-2-carboxamide] | 5
35 | Cc1ccc(NC(=O)C2(C(C)C)CCCCCC2)cc1O [N-(3′-hydroxy-4′-methylphenyl)-1-isopropylcycloheptanecarboxamide] | 1
36 | Cc1ccc(NC(=O)C2CC(C)CCC2C(C)C)cc1O (stereo not drawn) [N-(3′-hydroxy-4′-methylphenyl)-2-isopropyl-5-methylcyclohexanecarboxamide] | 0.1
37 | CC(C)C1(C(=O)Nc2cccc(O)c2)CCCCCC1 [N-(3′-hydroxyphenyl)-1-isopropylcycloheptanecarboxamide] | 10

Row | Molecule | Cold Sensation Threshold on Tongue [µg]
38 | CC(=O)c1ccc(NC(=O)C2CC(C)CCC2C(C)C)cc1 (stereo not drawn) [N-(4′-acetylphenyl)-2-isopropyl-5-methylcyclohexanecarboxamide] | 2
39 | CC1CCC(C(C)C)C(C(=O)Nc2ccc(Cl)cc2)C1 (stereo not drawn) [N-(4′-chlorophenyl)-2-isopropyl-5-methylcyclohexanecarboxamide] | 8
40 | CCOC(=O)c1ccc(NC(=O)C2CC(C)CCC2C(C)C)cc1 (stereo not drawn) [N-(4′-ethoxycarbonylphenyl)-2-isopropyl-5-methylcyclohexanecarboxamide] | 5
41 | CC1CCC(C(C)C)C(C(=O)Nc2ccc(F)cc2)C1 (stereo not drawn) [N-(4′-fluorophenyl)-2-isopropyl-5-methylcyclohexanecarboxamide] | 0.5
42 | CC1CCC(C(C)C)C(C(=O)Nc2ccc(O)cc2)C1 (stereo not drawn) [N-(4′-hydroxyphenyl)-2-isopropyl-5-methylcyclohexanecarboxamide] | 1
43 | COc1ccc(NC(=O)C2(C(C)C)CCCCCC2)c(C)c1 [N-(4′-methoxy-2′-methylphenyl)-1-isopropylcycloheptanecarboxamide] | 0.2
44 | COc1ccc(NC(=O)C2CC3CCC2(C)C3(C)C)cc1 (stereo not drawn) [N-(4′-methoxyphenyl)-1,7,7-trimethylbicyclo[2.2.1]heptane-2-carboxamide] | 8
45 | CCC1(C(=O)Nc2ccc(OC)cc2)CCCCCC1C (stereo not drawn) [N-(4′-methoxyphenyl)-1-ethyl-2-methylcycloheptanecarboxamide] | 6
46 | COc1ccc(NC(=O)C(C)(C(C)C)C(C)C)cc1 [N-(4′-methoxyphenyl)-2-isopropyl-2,3-dimethylbutyramide] | 0.5
47 | COc1ccc(NC(=O)C(C)(CC(C)C)C(C)C)cc1 (stereo not drawn) [N-(4′-methoxyphenyl)-2-isopropyl-2,4-dimethylpentanamide] | 2
48 | COc1ccc(NC(=O)C2CC(C)CCC2C(C)C)cc1 (stereo not drawn) [N-(4′-methoxyphenyl)-2-isopropyl-5-methylcyclohexanecarboxamide] | 0.1
49 | COc1ccc(NC(=O)C2C3CCC(C3)C2(C)C)cc1 (stereo not drawn) [N-(4′-methoxyphenyl)-3,3-dimethylbicyclo[2.2.1]heptane-2-carboxamide] | 20
50 | COc1ccc(NC(=O)C2C3C=CC(C3)C2CC(C)C)cc1 (stereo not drawn) [N-(4′-methoxyphenyl)-3-isobutylbicyclo[2.2.1]hept-5-ene-2-carboxamide] | 4
51 | COc1ccc(NC(=O)C2C3CCC(C3)C2C(C)C)cc1 (stereo not drawn) [N-(4′-methoxyphenyl)-3-isopropylbicyclo[2.2.1]heptane-2-carboxamide] | 15
52 | CC1CCC(C(C)C)C(C(=O)Nc2ccc([N+](=O)[O-])cc2)C1 (stereo not drawn) [N-(4′-nitrophenyl)-2-isopropyl-5-methylcyclohexanecarboxamide] | 0.3
53 | CC1CCC(C(C)C)C(C(=O)Nc2ccccc2)C1 (stereo not drawn) [N-phenyl-2-isopropyl-5-methylcyclohexanecarboxamide] | 20
54 | CC1CCC(C(C)C)C(C(=O)NCc2ccccc2)C1 (stereo not drawn) [N-phenylmethyl-2-isopropyl-5-methylcyclohexanecarboxamide] | 20
